The values below come from PubChem BioAssay (NCI).

Some test systems named below: 786-0 renal; COLO 205 colon; EKVX NSCLC; HCT-15 colon; HL-60(TB) leukemia; IGROV1 ovarian; MOLT-4 leukemia; NCI-H522 lung; NCI/ADR-RES ovarian; OVCAR-4 ovarian; SF-268 CNS; SW-620 colon; T-47D breast; UACC-62 melanoma; UO-31 renal; KM12 colon; NCI-H460 lung; SF-295 CNS; SK-OV-3 ovarian.
Holding throughout (assay): inhibition of tumour cell growth, NCI panel, 48 h

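Five concentrations, 48 hours, 96-well plates. TGI: concentration producing complete growth inhibition.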 A value given as a limit tells only on which side of the number the result lay.

Consider `O=C(N/N=C/c1ccco1)c1cc(I)cc(I)c1O`, for which the TGI in the test on 786-0 renal was 37.4 µM; in the test on COLO 205 colon, 45.6 µM; in the test with EKVX NSCLC, 37.2 µM; with HCT-15 colon, above 50 µM; in the test with HL-60(TB) leukemia, 27.7 µM; with IGROV1 ovarian it was above 50 µM. Also, the TGI in the test with MOLT-4 leukemia, with NCI-H522 lung, with NCI/ADR-RES ovarian, in the test on OVCAR-4 ovarian, in the test with SF-268 CNS and with SW-620 colon was above 50 µM throughout. The TGI with T-47D breast, in the test with UACC-62 melanoma and in the test with UO-31 renal was above 50 µM each time.
Take `COc1cc(CN2CCCCC2)cc2cc(C(=O)O)c(=O)oc12`: the TGI with 786-0 renal, with COLO 205 colon, with EKVX NSCLC, with HCT-15 colon, in the test with HL-60(TB) leukemia and in the test on IGROV1 ovarian was above 100 µM in each case. The TGI in the test with KM12 colon, with MOLT-4 leukemia, in the test on NCI-H460 lung, with NCI-H522 lung, with NCI/ADR-RES ovarian and with OVCAR-4 ovarian was above 100 µM each time. Besides, the TGI with SF-268 CNS, in the test on SF-295 CNS, in the test on SK-OV-3 ovarian, in the test with SW-620 colon, in the test on T-47D breast and in the test with UACC-62 melanoma was above 100 µM in each case. Moreover, the TGI in the test with UO-31 renal is above 100 µM.
With `CCCCc1ccc(Nc2nc3c(ncn3COCCO)c(=O)[nH]2)cc1`, the TGI with 786-0 renal, in the test with COLO 205 colon, in the test on EKVX NSCLC, in the test with HCT-15 colon, in the test with HL-60(TB) leukemia and with IGROV1 ovarian was above 100 µM each time. Also, the TGI in the test with KM12 colon, in the test with MOLT-4 leukemia, in the test on NCI-H522 lung, with NCI/ADR-RES ovarian, with OVCAR-4 ovarian and in the test with SF-268 CNS was above 100 µM each time. Moreover, the TGI with SF-295 CNS, in the test with SK-OV-3 ovarian, in the test with SW-620 colon, with T-47D breast, with UACC-62 melanoma and in the test on UO-31 renal was above 100 µM each time.
With `Cc1nc(C)c(Cc2ccccc2)o1`, the TGI in the test on 786-0 renal, in the test with COLO 205 colon, in the test on EKVX NSCLC, in the test on HCT-15 colon, in the test with HL-60(TB) leukemia and in the test with IGROV1 ovarian was above 100 µM throughout. Moreover, the TGI in the test with KM12 colon, with MOLT-4 leukemia, in the test on NCI-H460 lung, in the test on NCI-H522 lung, with NCI/ADR-RES ovarian and with OVCAR-4 ovarian was above 100 µM throughout. Also, the TGI in the test on SF-268 CNS, in the test with SF-295 CNS, in the test with SK-OV-3 ovarian, in the test with SW-620 colon, with T-47D breast and in the test with UACC-62 melanoma was above 100 µM throughout. In the test with UO-31 renal, this compound returned a TGI above 100 µM.
With `COc1c(C)c2nc3ccccc3[nH]c2c2c(=O)ccnc12`, the TGI in the test on 786-0 renal, with COLO 205 colon, in the test on EKVX NSCLC, in the test on HCT-15 colon, in the test on HL-60(TB) leukemia and in the test on IGROV1 ovarian was above 100 µM each time. The TGI in the test with KM12 colon, with MOLT-4 leukemia, in the test on NCI-H460 lung, in the test with NCI-H522 lung, in the test on NCI/ADR-RES ovarian and in the test with OVCAR-4 ovarian was above 100 µM in each case. The TGI in the test on SF-268 CNS, in the test with SF-295 CNS, in the test on SK-OV-3 ovarian, in the test on SW-620 colon, with T-47D breast and in the test on UO-31 renal was above 100 µM each time.
As to `O=c1c(-c2ccc(Cl)cc2)nnc2n(Cc3ccccc3)c3ccccc3n12`, the TGI is 42.8 µM in the test with 786-0 renal; above 100 µM in the test with COLO 205 colon; above 100 µM in the test on EKVX NSCLC; above 100 µM in the test on HCT-15 colon; above 100 µM in the test with HL-60(TB) leukemia; above 100 µM in the test on IGROV1 ovarian. In addition, the TGI in the test with KM12 colon was above 100 µM; in the test with MOLT-4 leukemia, above 100 µM; in the test on NCI-H460 lung, above 100 µM; in the test with NCI-H522 lung it was above 100 µM; in the test with NCI/ADR-RES ovarian, above 100 µM; in the test with OVCAR-4 ovarian, 30.7 µM. Further, the TGI is above 100 µM with SF-268 CNS; 49.4 µM in the test on SF-295 CNS; above 100 µM in the test with SW-620 colon; above 100 µM with T-47D breast; above 100 µM in the test with UO-31 renal.
Consider `COc1ccc(-c2c(C#N)c(N)nc3c2CCS(=O)(=O)c2ccccc2-3)cc1`, for which the TGI in the test on 786-0 renal, in the test with COLO 205 colon, in the test with HCT-15 colon, with HL-60(TB) leukemia, in the test on IGROV1 ovarian and in the test with KM12 colon was above 100 µM throughout. The TGI in the test with NCI-H460 lung, in the test with NCI-H522 lung, with NCI/ADR-RES ovarian, with OVCAR-4 ovarian, in the test on SF-268 CNS and in the test on SW-620 colon was above 100 µM in each case. The TGI in the test on T-47D breast, in the test with UACC-62 melanoma and in the test with UO-31 renal was above 100 µM each time.
Regarding `O=C(Cc1ccc([N+](=O)[O-])cc1)OCC#CCOC(=O)Cc1ccc([N+](=O)[O-])cc1`, the TGI in the test on 786-0 renal, in the test with EKVX NSCLC, in the test with HCT-15 colon, in the test with HL-60(TB) leukemia, in the test with IGROV1 ovarian and with KM12 colon was above 10 µM each time. For the same compound, the TGI in the test with MOLT-4 leukemia, with NCI-H460 lung, in the test with NCI-H522 lung, in the test on NCI/ADR-RES ovarian, in the test with OVCAR-4 ovarian and with SF-268 CNS was above 10 µM throughout. For the same compound, the TGI in the test on SF-295 CNS, in the test on SK-OV-3 ovarian, in the test on SW-620 colon, in the test with T-47D breast, in the test on UACC-62 melanoma and in the test on UO-31 renal was above 10 µM throughout.
